Results taken from US10011638B2, “PTEN antagonist peptides and methods of using the same” (SHRINERS HOSPITALS FOR CHILDREN, priority 2014, dated 2018).
Like-named read-outs stand apart in the source and are kept apart here.

Legend:
[1] = test system: DRG neurons; assay: Neurite outgrowth of adult DRG neurons on CNS myelin spots; assay type: cell-based, mice; details: chosen from dose-response curve of neurite outgrowth assays of DRGs on CNS myelin
Description: (§1) Neurite outgrowth from neurons was performed in DRG and CGN cultures 1-5 days after growth. For DRG assay on myelin spots, the center of each culture coverslip was spotted with 2 μl of purified CNS myelin (200 μg/ml), which contains a number of axon growth inhibitors (11). DRGs were dissected out from C57BL/6 mice aged 8-10 weeks. After incubation with collagenase and 0.25% trypsin, dissociated DRG neurons were plated onto plastic coverslips in 24-well plates and grown in culture medium as previously reported (25, 48). Primary CGN cultures were prepared from cerebelli of postnatal 7-9 day C57BL/6 mice as reported previously (25, 29).
(§2) After plating, dissociated neurons were treated with vehicle, RP (10 μg/ml), PAP1 (2.5 μg/ml), PAP2 (10 μg/ml), PAP3 ([…]), PAP4 (6.7 μg/ml) and PAP5 (5 μg/ml). The doses of PAPs were chosen based on the dose-response curve obtained from neurite outgrowth assays of DRGs on CNS myelin. Neurons were fixed 5 days (DRGs) or 24 hrs (CGNs) after plating and stained for Tuj1. Images of each culture were captured with a Nikon image collecting system and neurite outgrowth was quantified with Photoshop and NIH image software (25). The total neurite length of DRGs per myelin spot was determined from 5-8 representative experiments. The neurite length of CGNs was measured as previously reported (25, 29). To determine the cellular distribution of PTEN, DRGs were stained with anti-PTEN and anti-Tuj1l antibodies in selected coverslips.

[2] = target: T1, PTEN (Homo sapiens, UniProt P60484); assay: PTEN peptide binding assay in COS-7 cells; details: biotinylated peptides 15 μM, 1 hour; ABC-DAB, 405 nm; compared to BioRP
T1 construct: host or cells: COS-7
T1 sequence (P60484 whole entry, species assumed): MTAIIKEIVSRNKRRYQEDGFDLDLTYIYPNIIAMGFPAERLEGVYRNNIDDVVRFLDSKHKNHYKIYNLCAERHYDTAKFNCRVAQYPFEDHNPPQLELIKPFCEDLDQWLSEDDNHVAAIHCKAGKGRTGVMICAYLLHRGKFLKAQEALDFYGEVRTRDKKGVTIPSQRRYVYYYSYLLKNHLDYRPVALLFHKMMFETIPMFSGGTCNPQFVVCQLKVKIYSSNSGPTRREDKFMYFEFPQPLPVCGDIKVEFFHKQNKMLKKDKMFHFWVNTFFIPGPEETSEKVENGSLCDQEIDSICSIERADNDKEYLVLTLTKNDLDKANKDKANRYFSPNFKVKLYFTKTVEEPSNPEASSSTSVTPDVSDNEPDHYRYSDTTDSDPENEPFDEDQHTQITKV
Description: COS-7 cells were cultured as previously reported (29). Forty-eight hrs after transfection, cells were incubated with purified biotinylated RP or PAPs 1-4 (15 μM) for 1 hour. Following 3 washes with PBS and fixation with 4% formaldehyde, COS-7 cells were incubated in ABC and the PAP binding signals were visualized with ABC-DAB based color reactions. The intensity of reaction color in multiple wells was read with a 96-well plate reader at 405 nm. The binding experiments were carried out in 6-12 replicates.

[3] = test system: mice with T7 dorsal over-hemisection; assay: Growth of 5-HT and CST fiber tracts after T7 dorsal over-hemisection SCI; assay type: in vivo; details: s.c. 71 μg/mouse/day, 5 weeks after SCI; for density of 5-HT fibers in the spinal cord 5-7 mm caudal to the lesion: 14 days from 2 days after SCI, vs RP; for CST sprouts immediately rostral to the lesion (parasagittal sections) / density of ectopic CST sprouts lateral to the dorsal CST, 5-7 mm rostral to the lesion / growth of CST sprouts caudal to the lesion: 14 days
Description: (§3) Adult female C57BL/6 mice (9-10 weeks old) were deeply anesthetized with intramuscular ketamine (100 mg/kg) and intraperitoneal xylazine (15 mg/kg). A complete laminectomy was performed and the dorsal part of the spinal cord was fully exposed at T6 and T7 levels (31). A dorsal over-hemisection (1.0 mm) was performed at T7 with a 30 gauge needle and a pair of microscissors to completely sever dorsal part of the spinal cord as previously reported (29, 31). To study axon growth (FIG. 5-7), mice received daily subcutaneous injections of RP, PAP2 or PAP4 at 71 μg/mouse/day beginning two days after SCI for 14 successive days (29). Mice received BDA tracer injections into the motor cortex 3 weeks after SCI (31).
(§4) Mice were perfused 5 weeks after SCI and the spinal cord blocks around the lesion were processed for 5-HT and CST labeling. In brief, transverse sections (30 μm) 5-7 mm rostral to and caudal to the injury and parasagittal sections 4 mm rostral to and 4 mm caudal to lesion were processed for 5-HT-stained serotonergic fibers and BDA-labeled CST axons. To compare axon number among different groups, 5-HT axons were counted in the spinal cord 0-3.2 mm caudal to the lesion from all parasagittal sections in each animal. To determine functional recovery, locomotion recovery was evaluated during 5 weeks of survival by measuring the BMS two days and per week after SCI, and the grid walk performance and footprint 5 weeks after SCI. For axon quantification and behavioral analysis, 8, 9, and 9 mice were used in the RP, PAP2 and PAP4 groups, respectively.

[4] = test system: mice with T7 dorsal over-hemisection; assay: Locomotor recovery after T7 dorsal over-hemisection SCI (BMS, grid walk, footprint); assay type: in vivo; details: vs RP; for locomotor recovery, BMS scores: s.c. 71 μg/mouse/day, 14 days, 2-5 weeks after SCI
Description: as §3, §4

[5] = test system: CGNs; assay: Neurite outgrowth of cerebellar granular neurons (CGNs) on CNS myelin; assay type: cell-based, mice; details: 24 hrs after plating; myelin 50 μg/ml; compared to vehicle
Description: as §1
as §2, with “To determine the cellular distribution of PTEN, DRGs were stained with anti-PTEN and anti-Tuj1l antibodies in selected coverslips.” left out

[6] = test system: SCI rats; details: cited from earlier work

Row | Substance | Optimal dose [1] [µg/mL] | peptide binding to COS-7 cells transfected with PTEN [2] | density of 5-HT fibers in the spinal cord 5-7 mm caudal to the lesion [3] | CST sprouts immediately rostral to the lesion (parasagittal sections) [3] | density of ectopic CST sprouts lateral to the dorsal CST, 5-7 mm rostral to the lesion [3] | growth of CST sprouts caudal to the lesion [3] | locomotor recovery, BMS scores [4] | other results
1 | IHCKAGKGRTGVMIC [PAP3] | 5 | higher binding affinity than PAP2 |  |  |  |  |  | 
2 | KHKNHYKIYNLCAE [PAP2] | 10 |  | significantly increased | higher density | Increased density | A small number of CST sprouts grew into the distal spinal cord | improve locomotor recovery | 
3 | MTAIIKEIVSRNKRR [PAP1] | 2.5 | higher binding affinity than PAP2 |  |  |  |  |  | 
4 | PENEPFDEDQHSQITKV [PAP5] | 5 |  |  |  |  |  |  | neurite length of CGNs cultured on CNS myelin [5]: but not with PAP5, significantly increased
5 | TVEEPSNPEASSSTSVTPD [PAP4] | 5 | higher binding affinity than PAP2 | significantly increased | very high density | Increased density | terminated rostral to the lesion epicenter | improve locomotor recovery | stride length of the hindpaws ([4]; footprints 5 weeks after injury): enhanced stride length
6 | bisperoxovanadium [bpV] |  |  |  |  |  |  |  | functional recovery ([6]; intrathecal): improved functional recovery; functional recovery ([6]; systemic): improved functional recovery; levels of phosphorylated Akt and S6 in the lesioned spinal cord ([6]; systemic): elevated the levels of phosphorylated Akt and S6
